For 30 compounds, IC50 results are on record in patent US10689414B2 (Agios Pharmaceuticals, Inc., priority 2013, dated 2020).

The assay concerns U87MG cells. Briefly: Cellular assay, inhibition of 2-HG production in U87MG cells. The class given is cell-based. As to conditions: Homo sapiens, U-87 MG, 48 h. On the procedure:
Cells (HT1080 or U87MG) are grown in T125 flasks in DMEM containing 10% FBS, 1× penicillin/streptomycin and 500 ug/mL G418 (present in U87MG cells only). They are harvested by trypsin and seeded into 96 well white bottom plates at a density of 5000 cell/well in 100 ul/well in DMEM with 10% FBS. […] Cells are incubated overnight at 37° C. in 5% CO2. The next day test compounds are made up at 2× the final concentration and 100 ul are added to each cell well. The final concentration of DMSO is 0.2% and the DMSO control wells are plated in row G. The plates are then placed in the incubator for 48 hours. […] The cell plate is placed back in the incubator for another 24 hours. At 72 hours post compound addition, 10 mL/plate of Promega Cell Titer Glo reagent is thawed and mixed. The cell plate is removed from the incubator and allowed to equilibrate to room temperature. Then 100 ul of Promega Cell Titer Glo reagent is added to each well of media. The cell plate is then placed on an orbital shaker for 10 minutes and then allowed to sit at room temperature for 20 minutes. The plate is then read for luminescence with an integration time of 500 ms.

Some results are limits rather than exact numbers.

For orientation: IC50 means the midpoint of a concentration-inhibition curve. On to `O=C(NC1CCC(F)(F)C1)C(c1ccccc1Cl)N(C(=O)[C@@H]1CCC(=O)N1c1ncccn1)c1cccc(F)c1` (mixture of isomers) [Compound 73, (2S)—N-(1-(2-Chlorophenyl)-2-((3,3-difluorocyclopentyl)amino)-2-oxoethyl)-N-(3-fluorophenyl)-5-oxo-1-(pyrimidin-2-yl)pyrrolidine-2-carboxamide], for which the half-inhibitory concentration (IC50) was < 100 nM. The figure for `N#Cc1ccnc(N2C(=O)OCC[C@H]2C(=O)N(c2cccc(F)c2)C(C(=O)NC2CC(F)(F)C2)c2ccccc2Cl)c1` (mixture of isomers) [Compound 90, (4S)—N-(1-(2-Chlorophenyl)-2-(3,3-difluorocyclobutylamino)-2-oxoethyl)-3-(4-cyanopyridin-2-yl)-N-(3-fluorophenyl)-2-oxo-1,3-oxazinane-4-carboxamide] is < 100 nM; for `CS(=O)(=O)c1cccc(N(C(=O)[C@@H]2CCC(=O)N2c2nccc(C#N)n2)C(C(=O)NC2CC(F)(F)C2)c2ccccc2Cl)c1` (mixture of isomers) [Compound 102, (2S)—N-(1-(2-Chlorophenyl)-2-((3,3-difluorocyclobutyl)amino)-2-oxoethyl)-1-(4-cyanopyrimidin-2-yl)-N-(3-(methylsulfonyl)phenyl)-5-oxopyrrolidine-2-carboxamide] it is 100 to 500 nM; for `CC(C)(O)c1cc(F)cc(N(C(=O)[C@@H]2COC(=O)N2c2cc(C#N)ccn2)C(C(=O)NC2CC(F)(F)C2)c2ccccc2Cl)c1` (mixture of isomers) [Compound 145, (4S)—N-(1-(2-Chlorophenyl)-2-(3,3-difluorocyclobutylamino)-2-oxoethyl)-3-(4-cyanopyridin-2-yl)-N-(3-fluoro-5-(2-hydroxypropan-2-yl)phenyl)-2-oxooxazolidine-4-carboxamide] it is < 100 nM. The figure for `N#Cc1cc(F)cc(N(C(=O)[C@@H]2C[C@@H](O)C(=O)N2c2cc(C#N)ccn2)C(C(=O)NC2CC(F)(F)C2)c2ccccc2Cl)c1` (mixture of isomers) [Compound 169, (2S,4R)—N-(1-(2-Chlorophenyl)-2-(3,3-difluorocyclobutylamino)-2-oxoethyl)-N-(3-cyano-5-fluorophenyl)-1-(4-cyanopyridin-2-yl)-4-hydroxy-5-oxopyrrolidine-2-carboxamide] is < 100 nM; for `N#Cc1ccnc(N2C(=O)CC[C@H]2C(=O)N(c2cccc(-c3cn[nH]c3)c2)[C@H](C(=O)NC2CC(F)(F)C2)c2ccccc2Cl)c1` (single isomer, unassigned) [Compound 200] it is < 100 nM. The figure for `O=C(NC1CC(F)(F)C1)C(c1ccccc1Cl)N(C(=O)[C@@H]1CCCC(=O)N1c1ncccn1)c1cccc(F)c1` (stereo in doubt) [Compound 20, (S)—N—((R)-1-(2-Chloro-phenyl)-2-((3,3-difluorocyclobutyl)amino)-2-oxoethyl)-N-(3-fluoro-phenyl)-6-oxo-1-(pyrimidin-2-yl)piperidine-2-carboxamide] is 100 to 500 nM. Consider `C[C@]1(O)C[C@@H](C(=O)N(c2cccc(F)c2)[C@H](C(=O)NC2CC(F)(F)C2)c2ccccc2Cl)N(c2cc(C#N)ccn2)C1=O` (stereo in doubt) [Compound 183, (2S)—N—((R)-1-(2-chlorophenyl)-2-(3,3-difluorocyclobutylamino)-2-oxoethyl)-1-(4-cyanopyridin-2-yl)-N-(3-fluorophenyl)-4-hydroxy-4-methyl-5-oxopyrrolidine-2-carboxamide], for which the IC50 was < 100 nM. The figure for `O=C(NC1CCC(F)(F)CC1)[C@H](c1ccccc1Cl)N(C(=O)[C@@H]1CCC(=O)N1c1ncccn1)c1cccc(F)c1` [Compound 4, (S)—N—((S)-1-(2-chlorophenyl)-2-((4,4-difluorocyclohexyl)amino)-2-oxoethyl)-N-(3-fluoro-phenyl)-5-oxo-1-(pyrimidin-2-yl)pyrrolidine-2-carboxamide] is < 100 nM; for `O=C(NC1CCCCC1)[C@H](c1ccccc1Cl)N(C(=O)[C@@H]1CCC(=O)N1c1ncccn1)c1cccc(F)c1` [Compound 7] it is < 100 nM. For `O=C(NC1CC(F)(F)C1)[C@H](c1ccccc1Cl)N(C(=O)[C@@H]1COC(=O)N1c1ncccn1)c1cccc(F)c1` [Compound 9, (S)—N—((S)-1-(2-chloro-phenyl)-2-(3,3-difluorocyclo-butylamino)-2-oxoethyl)-N-(3-fluoro-phenyl)-2-oxo-3-(pyrimidin-2-yl)oxazolidine-4-carboxamide] the value was < 100 nM. For `O=C(NC1CC(F)(F)C1)[C@H](c1ccccc1Cl)N(C(=O)[C@@H]1CCC(=O)N1c1nccs1)c1cccc(F)c1` [Compound 14] the value was 100 to 500 nM; for `O=C(NC1CC(F)(F)C1)[C@H](c1ccccc1Cl)N(C(=O)[C@@H]1CCC(=O)N1c1cnccn1)c1cccc(F)c1` [Compound 18], < 100 nM; for `Cc1ccc(N2C(=O)CC[C@H]2C(=O)N(c2cccc(F)c2)[C@H](C(=O)NC2CC(F)(F)C2)c2ccccc2Cl)nc1` [Compound 21], 100 to 500 nM. The compound `O=C(NC1CC(F)(F)C1)C(c1ccccc1Cl)N(C(=O)[C@@H]1CCC(=O)N1c1ccccc1)c1cccc(F)c1` (stereo partly drawn) [Compound 23] yielded a 50% inhibitory concentration (IC50) of 100 to 500 nM. For `O=C(NC1CC(F)(F)C1)[C@H](c1ccccc1Cl)N(C(=O)[C@@H]1CCC(=O)N1c1ccc(F)cn1)c1cccc(F)c1` [Compound 29] the value was < 100 nM; for `O=C(NC1CC(F)(F)C1)[C@H](c1ccccc1Cl)N(C(=O)[C@@H]1COCC(=O)N1c1ncccn1)c1cccc(F)c1` [Compound 30, (S)—N—((S)-1-(2-chlorophenyl)-2-((3,3-difluorocyclobutyl)amino)-2-oxoethyl)-N-(3-fluorophenyl)-5-oxo-4-(pyrimidin-2-yl)morpholine-3-carboxamide], 100 to 500 nM. The figure for `O=C(NC1CC(F)(F)C1)[C@H](c1ccccc1Cl)N(C(=O)[C@@H]1CCC(=O)N1c1cc(Cl)ccn1)c1cccc(F)c1` [Compound 33] is 100 to 500 nM.

Regarding `N#Cc1ccnc(N2C(=O)CC[C@H]2C(=O)N(c2cccc(F)c2)[C@H](C(=O)NC2CC(F)(F)C2)c2ccccc2Cl)c1` [Compound 37], the IC50 was < 100 nM. For `O=C(NC1CC(F)(F)C1)[C@H](c1ccccc1Cl)N(C(=O)[C@@H]1CCC(=O)N1c1cscn1)c1cccc(F)c1` [Compound 43, (S)—N—((S)-1-(2-Chlorophenyl)-2-(3,3-difluorocyclobutylamino)-2-oxoethyl)-N-(3-fluorophenyl)-5-oxo-1-(thiazol-4-yl)pyrrolidine-2-carboxamide] the value was < 100 nM; for `N#Cc1ccc(N2C(=O)CC[C@H]2C(=O)N(c2cccc(F)c2)[C@H](C(=O)NC2CC(F)(F)C2)c2ccccc2Cl)nc1` [Compound 47], 100 to 500 nM; for `O=C(NC1CC(F)(F)C1)C(c1c(Cl)cccc1Cl)N(C(=O)[C@@H]1CCC(=O)N1c1ncccn1)c1cccc(F)c1` (stereo partly drawn) [Compound 51], 100 to 500 nM. The figure for `N#Cc1ccnc(N2C(=O)CC[C@H]2C(=O)N(c2cccc(F)c2)[C@H](C(=O)NC2CCC(F)(F)CC2)c2ccccc2Cl)c1` [Compound 53] is < 100 nM; for `N#Cc1ccnc(N2C(=O)CCC[C@H]2C(=O)N(c2cccc(F)c2)[C@H](C(=O)NC2CC(F)(F)C2)c2ccccc2Cl)c1` [Compound 55, (S)—N—((S)-1-(2-Chlorophenyl)-2-(3,3-difluorocyclobutylamino)-2-oxoethyl)-1-(4-cyanopyri-din-2-yl)-N-(3-fluorophenyl)-6-oxopiperidine-2-carboxamide] it is < 100 nM; for `O=C(NC1CCC(F)(F)CC1)[C@H](c1ccccc1Cl)N(C(=O)[C@@H]1CCC(=O)N1c1cnccn1)c1cccc(F)c1` [Compound 58, (S)—N—((S)-1-(2-Chlorophenyl)-2-(4,4-difluorocyclohexylamino)-2-oxoethyl)-N-(3-fluorophenyl)-5-oxo-1-(pyrazin-2-yl)pyrrolidine-2-carboxamide] it is < 100 nM. For `N#Cc1ccnc(N2C(=O)CC[C@H]2C(=O)N(c2cccc(F)c2)[C@H](C(=O)NC2CC(F)(F)C2)c2ccccc2Cl)n1` [Compound 68, (S)—N—((S)-1-(2-Chlorophenyl)-2-((3,3-difluorocyclobutyl)amino)-2-oxoethyl)-1-(4-cyanopyrimidin-2-yl)-N-(3-fluorophenyl)-5-oxopyrrolidine-2-carboxamide] the value was < 100 nM; for `N#Cc1cccnc1N1C(=O)CC[C@H]1C(=O)N(c1cccc(F)c1)[C@H](C(=O)NC1CC(F)(F)C1)c1ccccc1Cl` [Compound 69, (S)—N—((S)-1-(2-Chlorophenyl)-2-((3,3-difluorocyclobutyl)amino)-2-oxoethyl)-1-(3-cyanopyri-din-2-yl)-N-(3-fluorophenyl)-5-oxopyrrolidine-2-carboxamide], < 100 nM. For `O=C(NC1CC(F)(F)C1)[C@H](c1ccccc1Cl)N(C(=O)[C@@H]1CCC(=O)N1c1ncccn1)c1cc(F)cc(F)c1` [Compound 70, (S)—N—((S)-1-(2-Chlorophenyl)-2-((3,3-difluorocyclobutyl)amino)-2-oxoethyl)-N-(3,5-difluoro-phenyl)-5-oxo-1-(pyrimidin-2-yl)pyrrolidine-2-carboxamide], the IC50 is < 100 nM. For `N#Cc1ccnc(N2C(=O)CC[C@H]2C(=O)N(c2cc(F)cc(F)c2)[C@H](C(=O)NC2CC(F)(F)C2)c2ccccc2Cl)c1` [Compound 71, (S)—N—((S)-1-(2-Chlorophenyl)-2-((3,3-difluorocyclobutyl)amino)-2-oxoethyl)-1-(4-cyanopyridin-2-yl)-N-(3,5-difluorophenyl)-5-oxopyrrolidine-2-carboxamide] the value was < 100 nM.

`O=C(NC1CC(F)(F)C1)[C@H](c1ccccc1Cl)N(C(=O)[C@@H]1COC(=O)N1c1cscn1)c1cccc(F)c1` [Compound 72]: the IC50 is < 100 nM.
